These results are taken from BindingDB's records for patent US20240051954 (Novartis, 2024).

Broadly, the IC50 is the midpoint of a concentration-inhibition curve. Low values mean greater potency, high ones weaker potency.

Each structure is given as a SMILES string.

This experiment concerns the target T1, Cyclic GMP-AMP synthase [147-522] (Homo sapiens, UniProt Q8N884).
T1 construct: 147-522
Put plainly: Quantification of cGAS Protein Inhibition. As for the experimental part:
The enzyme solution was transferred into the reagent buffer to give a final concentration of 30 nM. […] The reaction plates were then centrifuged at 1000 rpm for 1 minute and incubated at room temperature for 1 h. […] The concentration of cGAMP was measured on a LC-MS/MS system consisting of a THERMO Dionex Ultimate LC system with a high pressure pump, an autosampler, a column heating compartment (Reinach, Switzerland) and a SCIEX Triple Quad 5500 (Framingham, MA, USA) mass spectrometer for detection. The sample plates were centrifuged for 10 minutes at 2000 rpm. Up to three plates were placed in the autosampler for injection. […] An isocratic flow of 1.0 mL/min solvent (60% ACN, 8 mM ammonium acetate, 5 mM ammonium hydroxide, 0.04% acetic acid) was applied and sprayed into the ion source of the mass spectrometers. The MS parameters were optimized based on the properties of the compounds to be detected and run in positive multi-reaction mode (MRM) based on the mass transitions. LC and MS parameters were also optimized to allow for a sample-to-sample measuring time of approximately 75 sec and a run time of 8 hours per 384-well plate. All data were analyzed with Excel; and the dose response curves were generated using the auto fitting function of XLfit.

T1 sequence (Q8N884 147-522): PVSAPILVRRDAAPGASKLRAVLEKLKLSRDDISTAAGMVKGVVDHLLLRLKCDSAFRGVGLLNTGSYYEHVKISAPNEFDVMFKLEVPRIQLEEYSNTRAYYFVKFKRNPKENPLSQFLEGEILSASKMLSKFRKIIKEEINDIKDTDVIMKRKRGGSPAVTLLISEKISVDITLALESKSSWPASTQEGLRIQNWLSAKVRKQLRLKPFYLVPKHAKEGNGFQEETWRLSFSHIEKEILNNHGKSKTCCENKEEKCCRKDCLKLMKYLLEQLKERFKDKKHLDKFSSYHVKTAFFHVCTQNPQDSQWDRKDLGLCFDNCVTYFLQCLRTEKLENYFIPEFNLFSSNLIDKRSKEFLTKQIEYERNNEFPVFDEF

`COc1nc2c(-n3ccnc3)c(-c3nnc(C(O)C(F)F)[nH]3)n(C)c2cc1Cl` (stereo unspecified) [US20240051954, Example 21] showed an IC50 of 121 nM.
